Source: publication PMC9313812, “The Pseudo‐Natural Product Rhonin Targets RHOGDI” (Angewandte Chemie (International Ed. in English), 2022)

Assays:
NIH/3T3 cells = test: Smoothened trafficking (ciliary localization of SMO); format: cell-based; settings: purmorphamine stimulation
Experimental: in fresh medium containing 0.5 % FBS and 5 nM BODIPY-cyclopamine for 4 h. Afterwards, cell nuclei were stained with 1 µg/ml DAPI for 10 min, samples were washed three times with PBS and subsequently mounted on glass slides using Aqua Polymount (Polysciences Inc).
Images were acquired on an Axiovert Observer Z1 microscope (Carl Zeiss, Germany) using a Plan-Apochromat 63x/1.40 Oil DIC M27 objective.
Additionally, SMO binding was confirmed by flow cytometry. HEK293T cells were seeded (3×10^5 per well) in 6-well plate and transfected with BFP-SMO-expressing plasmid using FuGENE HD transfection reagent according to the manufacturer’s instructions. After 48 h of incubation the medium was replaced by DMEM containing 0.5% FBS, 5 nM BODIPY-cyclopamine and various concentrations of the test compounds or DMSO as a control. […]
projections, after previous background subtraction. For quantification, cilia were identified and […]
Smoothened antibody were measured within these areas. […]
significances were assessed using an unpaired t-test (confidence interval of 95%) with the […]
replicates were performed and for each replicate at least 100 cilia per condition were analyzed.
Reverse transcription- quantitative PCR (RT-qPCR) […]
DNase I digestion step. The concentration of purified RNA was determined by means of the […]

SMO = target: T1, SMO (Mus musculus, UniProt P56726); test: SMO binding assay (BODIPY-cyclopamine displacement); format: cell-based; settings: HEK293T cells expressing SMO, 5 nM BODIPY-cyclopamine
T1 construct: expressed in transfected cells; host or cells: HEK293T
Experimental: Supplementary Figure S2. […] HEK293T cells […]
ectopically expressing SMO were treated with different concentrations of 7a or Vismodegib and DMSO as controls in the presence of BODIPY-cyclopamine (5 nM) for 5 h. The graph […]
activated cell sorting analysis. Data are mean values of three independent experiments (n=3) ± […]
using a three-fold dilution series starting from a concentration of 30 μM. Half-maximal inhibitory concentrations (IC50) were calculated using the Quattro software suite (Quattro Research, Planegg, Germany) or GraphPad Prism 7 (GraphPad, USA).
The effect of test compounds on the viability of C3H/10T1/2 cells was determined by CellTiter-Glo Luminescence cell viability assay (Promega). Cells were treated as described for the osteogenesis assay prior to addition of the CellTiter-Glo® reagent according to manufacturer’s protocol. Compounds causing at least a 50% reduction in the osteogenesis assay and retaining cell viability of at least 80% were considered as hits. Dose-response analyses were performed for all hit compounds using a three-fold dilution series starting from a concentration of 30 μM. Half-maximal inhibitory concentrations (IC50) were calculated using the Quattro software suite (Quattro Research GmbH).
GLI-dependent reporter gene assay
Shh-LIGHT2 cells were seeded (2.5×10^4 per well) in 96-well plates. After incubation for 16 h, medium was replaced by low serum-containing medium (0.5% FCS) supplemented with 1.5 μM purmorphamine and various concentrations of the compounds or DMSO as a control and cells were incubated for 48 h. Firefly and Renilla luciferase activities were determined by means of the Dual-Luciferase® Reporter Assay System (Promega) according to the manufacturer’s protocol and luminescence was measured using the Spark plate reader (Tecan, […]
HEK293T cells were seeded (1.5×10^4 per well) on poly-D-lysine-coated coverslips placed in a 24-well plate. 24 h later cells were transfected with the SMO-expressing plasmid (pGEN-mSMO) using FuGENE HD (Promega) according to the manufacturer’s protocol. […]

T1 sequence (P56726 33-793): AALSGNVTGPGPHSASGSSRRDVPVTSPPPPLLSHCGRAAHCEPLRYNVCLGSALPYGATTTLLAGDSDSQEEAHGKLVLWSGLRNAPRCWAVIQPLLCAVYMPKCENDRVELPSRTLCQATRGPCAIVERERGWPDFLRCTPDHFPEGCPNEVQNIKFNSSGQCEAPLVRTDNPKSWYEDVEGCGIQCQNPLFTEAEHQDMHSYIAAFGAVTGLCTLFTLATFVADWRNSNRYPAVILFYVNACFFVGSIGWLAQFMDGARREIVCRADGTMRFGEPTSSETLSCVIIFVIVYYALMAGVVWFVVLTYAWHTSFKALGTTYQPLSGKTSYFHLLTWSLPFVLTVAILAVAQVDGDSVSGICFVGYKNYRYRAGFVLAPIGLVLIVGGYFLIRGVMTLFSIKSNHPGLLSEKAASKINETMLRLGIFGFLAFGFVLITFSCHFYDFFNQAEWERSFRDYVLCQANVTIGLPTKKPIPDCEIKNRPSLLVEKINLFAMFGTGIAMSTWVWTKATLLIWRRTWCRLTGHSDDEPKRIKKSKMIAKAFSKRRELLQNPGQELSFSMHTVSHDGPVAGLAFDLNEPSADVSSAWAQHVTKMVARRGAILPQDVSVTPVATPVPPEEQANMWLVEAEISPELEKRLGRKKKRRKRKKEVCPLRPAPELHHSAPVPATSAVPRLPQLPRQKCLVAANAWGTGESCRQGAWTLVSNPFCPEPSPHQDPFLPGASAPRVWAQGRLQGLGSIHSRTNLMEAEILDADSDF

COC(=O)C1(C(CC(=O)c2cccnc2)c2ccccc2)N=C(c2ccc(Br)cc2)C2C(=O)N(C)C(=O)C21 (centres unmarked) [7l]
Localization of SMO to cilia (in words) (NIH/3T3 cells): SMO was localized to the cilia
Displacement of BODIPY-cyclopamine from SMO (in words) (SMO): partial decrease

COC(=O)C1(C(CC(=O)c2ccccc2)c2ccccc2)N=C(c2ccc(Br)cc2)C2C(=O)N(C)C(=O)C21 (centres unmarked) [7a]
Localization of SMO to cilia (in words) (NIH/3T3 cells): did not affect the localization of SMO to cilia
Displacement of BODIPY-cyclopamine from SMO (in words) (SMO): does not displace
Displacement of BODIPY-cyclopamine from SMO (in words) (SMO; listed as 7 a): did not displace
